We go through one substance from patent publication US20090131354A1, “miR-126 REGULATED GENES AND PATHWAYS AS TARGETS FOR THERAPEUTIC INTERVENTION” (priority 2007, published 2009).

What all share (type): cell-based, human
The test system of one data set is A549 lung cancer cells. The data set is described as follows: Dose-dependent inhibition of proliferation (Alamar Blue), A549. The settings on record: for % proliferation: normalized to mock-transfected cells (0 pM = 100%). Here is the method:
(§1) Lipid-based reverse transfections were carried out in triplicate according to a published protocol (Ovcharenko et al., 2005) and the following parameters: Cells (5,000-12,000 per 96 well), 0.1-0.2 μl Lipofectamine™ 2000 (cat. no. 11668-019, Invitrogen Corp., Carlsbad, Calif., USA) in 20 μl OptiMEM (Invitrogen), 30 nM final concentration of miRNA in 100 μl. Electroporation of H226 cells was carried out using the BioRad Gene Pulser Xcell™ instrument (BioRad Laboratories Inc., Hercules, Calif., USA) with the following settings: 5×10^6 cells with 5 μg miRNA in 200 μl OptiMEM (1.6 μM miRNA), square wave pulse at 250 V for 5 ms. Electroporated H226 cells were seeded at 7,000 cells per 96-well in a total volume of 100 μl. All cells except for Calu-3 cells were harvested 72 hours post transfection or electroporation for assessment of cellular proliferation. Calu-3 cells were harvested 10 days post transfection. Proliferation assays were performed using Alamar Blue (Invitrogen) following the manufacturer's instructions. As a control for inhibition of cellular proliferation, siRNA against the motor protein kinesin 11, also known as Eg5, was used. Eg5 is essential for cellular survival of most eukaryotic cells and a lack thereof leads to reduced cell proliferation and cell death (Weil et al., 2002). siEg5 was used in lipid-based transfection following the same experimental parameters that apply to miRNA. The inventors also used a DNA topoisomerase II inhibitor, etoposide, at a final concentration of 10 μM and 50 μM as an internal standard for the potency of miRNAs. Etoposide is an FDA-approved DNA topoisomerase II inhibitor in the treatment of lung cancer. […] Percent (%) proliferation values from the Alamar Blue assay were normalized to values from cells treated with negative control miRNA. Percent proliferation of hsa-miR-126 treated cells relative to cells treated with negative control miRNA (100%) is shown in Table 6 and in FIG. 1.
(§2) The inventors determined sensitivity and specificity of hsa-miR-126 by administering hsa-miR-126 or negative control miRNA at increasing concentrations, ranging from 0 pM to 3,000 pM (Table 7, FIG. 2). Delivery of miRNA and assessment of cellular proliferation of A549 and H460 cells were done as described above. Proliferation values from the Alamar Blue assay were normalized to values obtained from mock-transfected cells (0 pM=100% proliferation). Increasing amounts of negative control miRNA (NC) had no effect on cellular proliferation of A549 or H460 cells (Table 7 and FIG. 2). In contrast, the growth-inhibitory phenotype of hsa-miR-126 is dose-dependent and correlates with increasing amounts of hsa-miR-126 (Table 7 and FIG. 2). Hsa-miR-126 induces a specific therapeutic response at concentrations as low as 300 pM.

Data set [1] has as its system Du145 prostate cancer cells. The data set is described as follows: Long-term growth curve with repeated electroporation, Du145. An excerpt:
To evaluate the therapeutic activity of hsa-miR-126 over an extended period of time, we conducted growth curve experiments in the presence of miRNA for up to 21 days. Since in vitro transfections of naked interfering RNAs, such as synthetic miRNA, are transient by nature and compromised by the dilution of the oligonucleotide during ongoing cell divisions, we administered miRNA at multiple time points (Bartlett and Davis, 2006; Bartlett and Davis, 2007). To accommodate miRNA delivery into a large quantity of cells, we employed the electroporation method to delivery hsa-miR-126 or negative control miRNA into PPC-1, PC3 and Du145 human prostate cancer cells. Briefly, 1×10^6 PPC-1 or PC3 cells, and 0.5×10^6 Du145 cells were electroporated with 1.6 μM hsa-miR-126 or negative control using the BioRad Gene Pulser Xcell™ instrument (BioRad Laboratories Inc., Hercules, Calif., USA), seeded and propagated in regular growth medium. Experiments with PC3 and Du145 cells were carried out in triplicates. When the control cells reached confluence (days 4 and 11 for PPC-1; days 7 and 14 for PC3 and Du145), cells were harvested, counted and electroporated again with the respective miRNAs. […] The population doubling was calculated from these electroporation events using the formula PD=ln(Nf/N0)/ln2, and cell counts were extrapolated and plotted on a linear scale (FIGS. 10-12). […]

Another data set concerns H460 lung cancer cells. The data set is described as follows: Dose-dependent inhibition of proliferation (Alamar Blue), H460. The settings on record: normalized to mock-transfected cells (0 pM = 100%). Here is the method:
as §1, §2

A value given as a limit tells only on which side of the number the result lay.

“hsa-miR-126 (UCGUACCGUGAGUAAUAAUGC; synthetic pre-miR form, further chemistry not given here) [Synthetic hsa-miR-126 (Pre-miR™-hsa-miR-126, Ambion cat. no. AM17100)]”: in the data set on A549 lung cancer cells (A549 and H460, 0 pM to 3,000 pM), the “growth-inhibitory phenotype, dose dependence” value is “dose-dependent”. For the same substance, the “concentration inducing a specific therapeutic response” value with A549 lung cancer cells (A549 and H460, 0 pM to 3,000 pM tested) is on record as no less than 300 pM. Further, the “% proliferation” value in the data set with A549 lung cancer cells (A549 cells, 3 pM miRNA) is recorded as 95.40%; with A549 lung cancer cells (A549 cells, 30 pM miRNA), 92.87%; in the data set on A549 lung cancer cells (A549 cells, 300 pM miRNA), 80.93%; in the data set on A549 lung cancer cells (A549 cells, 3,000 pM miRNA), 74.50%; in the data set with H460 lung cancer cells (H460 cells, 3 pM miRNA), 105.60%; with H460 lung cancer cells (H460 cells, 30 pM miRNA), 108.98%. For the same substance, the “% proliferation” value in the data set on H460 lung cancer cells (H460 cells, 300 pM miRNA) amounted to 86.46%; with H460 lung cancer cells (H460 cells, 3,000 pM miRNA), 33.91%. The “inhibition of cell growth” value in data set [1] (Du145, day 20, 1.6 μM repeated electroporation, relative to control cells (100%)) worked out at 83.9%. Further, in data set [1] (Du145, day 20, relative to control cells (100%)), the remaining cells came out at 16.1%.
